Results as given in patent publication US8697705B2, “Isoindolinone derivatives” (Hoffmann-La Roche Inc., priority 2011, dated 2014).

These molecules were tested on C57BL/6J mice (assay: Glucokinase activator in vivo screen: blood glucose lowering after oral gavage in mice). Conditions: Mus musculus; vs. control at 2 hours post 25 mg/kg oral dose, C57B6 mice; read-out: % gluc lowering @ 2 H.
Protocol: Glucokinase Activator In Vivo Screen Protocol in Lean Mice:
Lean C57BL/6J mice were orally dosed via gavage with Glucokinase (GK) activator following a two hour fasting period. Blood glucose determinations were made at various (e.g. 0, 1, 2, 4 and 8 hours post-oral gavage) times during the study.
C57Bl/6J mice were obtained from Jackson Laboratory (Bar Harbor, Me.) and were maintained in a light-dark cycle with lights on from 0600-1800 hr. For studies in lean mice, the mice were received at age ten weeks and given ad libitum access to control diet (LabDiet 5001 chow, PMI Nutrition, Brentwood, Mo.), and were at least age 11 weeks at the time of study. For studies in the DIO model, the mice were received at age five weeks and given ad libitum access to Bio-Sery F3282 High Fat Diet (Frenchtown, N.J.), and were at least age 16 weeks at the time of study. The experiments were conducted during the light phase of the light-dark cycle. Mice (n=6) are weighed and fasted for a two hour period prior to oral treatment. GK activators are formulated in Gelucire vehicle (Ethanol:Gelucire44/14:PEG400q.s. 4:66:30 v/w/v). For studies in lean mice, the mice were dosed orally with 5.0 μL per gram of body weight (i.e. 5 ml/kg×10.0 mg/ml formulation to equal a 50 mg/kg dose). For studies in DIO mice, the mice were dosed orally with 5.0 μL per gram of body weight (i.e. 5.0 ml/kg×5 mg/ml formulation to equal a 25 mg/kg dose). Immediately prior to dosing, a pre-dose (time zero) blood glucose reading was acquired by snipping off a small portion of the animal's tail and collecting 15 μL blood into a heparinized capillary tube for analysis. Following GK activator administration, additional blood glucose readings were taken at various time points post dose from the same tail wound. Results were interpreted by comparing the mean blood glucose values of vehicle treated mice with GK activator treated mice over the study period.
Table 2 below provides data for % glucose lowering of a representative number of compounds of the present invention vs. control at 2 hours post 25 or 50 mg/kg dose in C57B6 mice: […]

| SMILES | change in vivo at 25 mg/kg |
| --- | --- |
| Cn1ccc(NC(=O)[C@H](CC2CCCC2)N2Cc3c(cccc3C(F)(F)F)C2=O)n1 [Example 1, (S)-3-Cyclopentyl-N-(1-methyl-1H-pyrazol-3-yl)-2-(1-oxo-4-trifluoromethyl-1,3-dihydro-isoindol-2-yl)-propionamide] | -39.8% |
| O=C(Nc1ccn(CCO)n1)[C@H](CC1CCCC1)N1Cc2c(cccc2C(F)(F)F)C1=O [Example 2, (S)-3-Cyclopentyl-N-[1-(2-hydroxy-ethyl)-1H-pyrazol-3-yl]-2-(1-oxo-4-trifluoromethyl-1,3-dihydro-isoindol-2-yl)-propionamide] | -38.8% |
| O=C(Nc1ccn(C[C@@H](O)CO)n1)[C@H](CC1CCCC1)N1Cc2c(cccc2C(F)(F)F)C1=O [Example 5, (S)-3-Cyclopentyl-N-[1-((R)-2,3-dihydroxy-propyl)-1H-pyrazol-3-yl]-2-(1-oxo-4-trifluoromethyl-1,3-dihydro-isoindol-2-yl)-propionamide] | -50.1% |

The molecules below were run against T1, Recombinant human liver GK1 (GST-GK) (Homo sapiens, UniProt P35557) (assay: Glucokinase in vitro assay (G6PDH-coupled, NADH generation, OD340)). Conditions: 30° C., 5 mM D-glucose, 10% dimethylsulfoxide.
T1 construct: made in house; host or cells: E. coli
T1 sequence (P35557 1-466 isoform P35557-2): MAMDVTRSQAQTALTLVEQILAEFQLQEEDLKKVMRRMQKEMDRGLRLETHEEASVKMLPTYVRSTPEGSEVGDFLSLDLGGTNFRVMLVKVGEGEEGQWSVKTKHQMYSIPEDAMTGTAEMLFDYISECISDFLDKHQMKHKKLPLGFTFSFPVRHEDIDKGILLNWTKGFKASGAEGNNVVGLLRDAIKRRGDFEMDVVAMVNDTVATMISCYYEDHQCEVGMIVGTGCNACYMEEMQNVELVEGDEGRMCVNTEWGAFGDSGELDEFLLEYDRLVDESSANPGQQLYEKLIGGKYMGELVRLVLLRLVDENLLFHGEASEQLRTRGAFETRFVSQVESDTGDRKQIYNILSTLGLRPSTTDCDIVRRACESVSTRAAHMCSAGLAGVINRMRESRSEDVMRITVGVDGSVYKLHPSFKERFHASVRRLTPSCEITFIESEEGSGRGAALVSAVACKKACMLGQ
Type: biochemical
Protocol: Glucokinase In Vitro Assay Protocol:
Glucokinase (GK) was assayed by coupling the production of glucose-6-phosphate to the generation of NADH with glucose-6-phosphate dehydrogenase (G6PDH, 0.75-1 kunits/mg; Boehringer Mannheim, Indianapolis, Ind.) from Leuconostoc mesenteroides as the coupling enzyme (Scheme 2).
Recombinant human liver GK1 was expressed in E. coli as a glutathione S-transferase fusion protein (GST-GK) and was purified by chromatography over a glutathione-Sepharose 4B affinity column using the procedure provided by the manufacturer (Amersham Pharmacia Biotech, Piscataway, N.J.).
The assay was conducted at 30° C. in a flat bottom 96-well tissue culture plate from Costar (Cambridge, Mass.) with a final incubation volume of 120 μL. The incubation reaction contained the following: 25 mM Hepes buffer (pH 7.1), 25 mM KCl, 5 mM D-glucose, 1 mM ATP, 1.8 mM NAD, 2 mM MgCl2, 1 μM sorbitol-6-phosphate, 1 mM dithiothreitol, test drug or 10% dimethylsulfoxide, ˜7 units/ml G6PDH, and GK (see below). All organic reagents were >98% pure and were from Boehringer Mannheim with the exceptions of D-glucose and Hepes which were from Sigma Chemical Co, St Louis, Mo. Test compounds were dissolved in dimethylsulfoxide and were added to the incubation reaction minus GST-GK in a volume of 12 μL to yield a final dimethylsulfoxide concentration of 10%. This mix was pre-incubated in the temperature controlled chamber of a SPECTRAmax 250 microplate spectrophotometer (Molecular Devices Corporation, Sunnyvale, Calif.) for 10 minutes to allow temperature equilibrium and then the reaction was started by the addition of 20 μL GST-GK.
After addition of enzyme, the increase in optical density (OD) at 340 nm was monitored spectrophotometrically to determine the rate of change (OD340 per min). The GK activity (OD340/min) in control wells (10% dimethylsulfoxide minus GK activators) was compared with the activity in wells containing test GK activators, and the concentration of activator that produced a 50% increase in the activity of GK, i.e., the SC1.5, was calculated.

| SMILES | SC1.5 (concentration of activator that produced a 50% increase in the activity of GK) |
| --- | --- |
| Cn1ccc(NC(=O)[C@H](CC2CCCC2)N2Cc3c(cccc3C(F)(F)F)C2=O)n1 [Example 1, (S)-3-Cyclopentyl-N-(1-methyl-1H-pyrazol-3-yl)-2-(1-oxo-4-trifluoromethyl-1,3-dihydro-isoindol-2-yl)-propionamide] | 0.187 µM |
| O=C(Nc1ccn(CCO)n1)[C@H](CC1CCCC1)N1Cc2c(cccc2C(F)(F)F)C1=O [Example 2, (S)-3-Cyclopentyl-N-[1-(2-hydroxy-ethyl)-1H-pyrazol-3-yl]-2-(1-oxo-4-trifluoromethyl-1,3-dihydro-isoindol-2-yl)-propionamide] | 0.186 µM |
| CC(C)(C)OC(=O)Cn1ccc(NC(=O)[C@H](CC2CCCC2)N2Cc3c(cccc3C(F)(F)F)C2=O)n1 [Example 3, {3-[(S)-3-Cyclopentyl-2-(1-oxo-4-trifluoromethyl-1,3-dihydro-isoindol-2-yl)-propionylamino]-pyrazol-1-yl}-acetic acid tert-butyl ester] | 0.244 µM |
| O=C(O)Cn1ccc(NC(=O)[C@H](CC2CCCC2)N2Cc3c(cccc3C(F)(F)F)C2=O)n1 [Example 4, {3-[(S)-3-Cyclopentyl-2-(1-oxo-4-trifluoromethyl-1,3-dihydro-isoindol-2-yl)-propionylamino]-pyrazol-1-yl}-acetic acid] | 0.439 µM |
| O=C(Nc1ccn(C[C@@H](O)CO)n1)[C@H](CC1CCCC1)N1Cc2c(cccc2C(F)(F)F)C1=O [Example 5, (S)-3-Cyclopentyl-N-[1-((R)-2,3-dihydroxy-propyl)-1H-pyrazol-3-yl]-2-(1-oxo-4-trifluoromethyl-1,3-dihydro-isoindol-2-yl)-propionamide] | 0.074 µM |
| COCCn1ccc(NC(=O)[C@H](CC2CCCCC2)N2Cc3ccccc3C2=O)n1 [Example 8, (S)-3-Cyclohexyl-N-[1-(2-methoxy-ethyl)-1H-pyrazol-3-yl]-2-(1-oxo-1,3-dihydro-isoindol-2-yl)-propionamide] | 3.526 µM |
| COCCn1ccc(NC(=O)[C@H](CC2CCCC2)N2Cc3ccccc3C2=O)n1 [Example 9, (S)-3-Cyclopentyl-N-[1-(2-methoxy-ethyl)-1H-pyrazol-3-yl]-2-(1-oxo-1,3-dihydro-isoindol-2-yl)-propionamide] | 1.6 µM |
| COC(C)(C)Cn1ccc(NC(=O)[C@H](CC2CC2)N2Cc3ccccc3C2=O)n1 [Example 10, (S)-3-Cyclopropyl-N-[1-(2-methoxy-2-methyl-propyl)-1H-pyrazol-3-yl]-2-(1-oxo-1,3-dihydro-isoindol-2-yl)-propionamide] | 20.625 µM |
| CC(C)OCCn1ccc(NC(=O)[C@H](CC2CCCC2)N2Cc3ccccc3C2=O)n1 [Example 11, (S)-3-Cyclopentyl-N-[1-(2-isopropoxy-ethyl)-1H-pyrazol-3-yl]-2-(1-oxo-1,3-dihydro-isoindol-2-yl)-propionamide] | 2.091 µM |
| O=C(Nc1ccn(CCCO)n1)[C@H](CC1CCCC1)N1Cc2ccccc2C1=O [Example 12, (S)-3-Cyclopentyl-N-[1-(3-hydroxy-propyl)-1H-pyrazol-3-yl]-2-(1-oxo-1,3-dihydro-isoindol-2-yl)-propionamide] | 1.857 µM |
| COC(C)(C)Cn1ccc(NC(=O)[C@H](CC2CCCC2)N2Cc3ccccc3C2=O)n1 [Example 14, (S)-3-Cyclopentyl-N-[1-(2-methoxy-2-methyl-propyl)-1H-pyrazol-3-yl]-2-(1-oxo-1,3-dihydro-isoindol-2-yl)-propionamide] | 1.242 µM |
| O=C(Nc1cnc(Br)cn1)[C@H](CC1CCCC1)N1Cc2c(cccc2C(F)(F)F)C1=O [Example 16, (S)—N-(5-Bromo-pyrazin-2-yl)-3-cyclopentyl-2-(1-oxo-4-trifluoromethyl-1,3-dihydro-isoindol-2-yl)-propionamide] | 0.062 µM |
| CC(C)(C)OC(=O)CCn1ccc(NC(=O)[C@H](CC2CCCC2)N2Cc3c(cccc3C(F)(F)F)C2=O)n1 [Example 19, 3-{3-[(S)-3-Cyclopentyl-2-(1-oxo-4-trifluoromethyl-1,3-dihydro-isoindol-2-yl)-propionylamino]-pyrazol-1-yl}-propionic acid tert-butyl ester] | 0.334 µM |
| O=C(O)CCn1ccc(NC(=O)[C@H](CC2CCCC2)N2Cc3c(cccc3C(F)(F)F)C2=O)n1 [Example 20, 3-[3-[(S)-3-Cyclopentyl-2-(1-oxo-4-trifluoromethyl-1,3-dihydro-isoindol-2-yl)-propionylamino]-pyrazol-1-yl]-propionic acid] | 0.457 µM |
| CSCC[C@@H](C(=O)Nc1cnc([C@H](O)CO)cn1)N1Cc2c(cccc2C(F)(F)F)C1=O [Example 22, (S)—N-[5-((S)-1,2-Dihydroxy-ethyl)-pyrazin-2-yl]-4-methylsulfanyl-2-(1-oxo-4-trifluoromethyl-1,3-dihydro-isoindol-2-yl)-butyramide] | 14.914 µM |
| CC(C)C[C@@H](C(=O)Nc1cnccn1)N1Cc2c(cccc2C(F)(F)F)C1=O [Example 23, (S)-4-Methyl-2-(1-oxo-4-trifluoromethyl-1,3-dihydro-isoindol-2-yl)-pentanoic acid pyrazin-2-ylamide] | 1.422 µM |
| CC(C)C[C@@H](C(=O)Nc1cnc([C@H](O)CO)cn1)N1Cc2c(cccc2C(F)(F)F)C1=O [Example 24, (S)-4-Methyl-2-(1-oxo-4-trifluoromethyl-1,3-dihydro-isoindol-2-yl)-pentanoic acid [5-((S)-1,2-dihydroxy-ethyl)-pyrazin-2-yl]-amide] | 2.966 µM |
